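Briefly, cells in 96-well plates were exposed to five compound concentrations for 48 h, and endpoints were estimated by linear interpolation. GI50 marks 50% less growth. The concentration for full growth arrest is given as TGI.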
Legend:
Experiment in all cases: DTP human tumour cell line panel, 48 h
ACHN renal = system: ACHN renal
COLO 205 colon = system: COLO 205 colon
SR leukemia = system: SR leukemia
HT29 colon = system: HT29 colon
OVCAR-3 ovarian = system: OVCAR-3 ovarian
HOP-92 NSCLC = system: HOP-92 NSCLC
M14 melanoma = system: M14 melanoma
NCI-H522 lung = system: NCI-H522 lung
NCI/ADR-RES ovarian = system: NCI/ADR-RES ovarian
T-47D breast = system: T-47D breast

Row | Structure (SMILES) | TGI (ACHN renal) [µM] | TGI (COLO 205 colon) [µM] | TGI (SR leukemia) [µM] | TGI (HT29 colon) [µM] | TGI (OVCAR-3 ovarian) [µM] | TGI (HOP-92 NSCLC) [µM] | TGI (M14 melanoma) [µM] | TGI (NCI-H522 lung) [µM] | GI50 (NCI-H522 lung) [µM] | GI50 (ACHN renal) [µM] | GI50 (COLO 205 colon) [µM] | GI50 (HT29 colon) [µM] | GI50 (NCI/ADR-RES ovarian) [µM] | TGI (NCI/ADR-RES ovarian) [µM] | GI50 (T-47D breast) [µM] | TGI (T-47D breast) [µM] | GI50 (HOP-92 NSCLC) [µM] | GI50 (M14 melanoma) [µM] | GI50 (OVCAR-3 ovarian) [nM] | GI50 (SR leukemia) [nM]
1 | CCOC(=O)C=C1CCN(C(=O)c2ccccc2)CC1 | > 100 | > 100 | > 100 | > 100 | > 100 | > 100 | > 100 | – | – | – | – | – | – | – | – | – | – | – | – | –
2 | CS(=O)(=O)CC1=Nc2nnc(CCCCCCCc3nnc4n3C(=O)C(CS(C)(=O)=O)=N4)n2C1=O | > 100 | > 100 | > 100 | > 100 | > 100 | > 100 | > 100 | > 100 | – | – | – | – | – | – | – | – | – | – | – | –
3 | CC12CCC(=O)C(O1)C1C(=O)c3cc4ccccc4cc3C(=O)C12 (stereo unspecified) | 31.1 | 47.1 | – | 51.1 | – | 29.7 | 53.3 | 52.3 | 21.9 | 15.8 | 19.9 | 21 | 21.3 | 57.2 | 14.9 | 39.4 | 13.9 | 21.5 | – | –
4 | COc1ccc2c(c1)CCC1C2CCC2(C)C1CCC2(O)CNC(=O)CCCCC1CCSS1 (stereo unspecified) | > 100 | > 100 | – | 6.81 | 29.2 | 23 | > 100 | > 100 | 23.7 | 53.6 | 6.14 | 2.28 | 7.28 | > 100 | 3.27 | 28.9 | 4.9 | 20.8 | 8650 | –
5 | O=C(NCCCCCCNC(=O)c1cccc2ccccc12)c1cccc2ccccc12 | > 100 | 3.4 | > 100 | > 100 | 71 | 25.8 | > 100 | > 100 | – | – | – | – | – | – | – | – | – | – | – | –
6 | COc1cccc(OC(=O)c2ccccc2Nc2ccnc(C(F)(F)F)c2)c1 | 24.7 | 5.13 | – | > 100 | 10.5 | 60.4 | 4.04 | > 100 | 7.61 | 3.4 | 2.22 | 3.68 | – | – | 50.5 | > 100 | 5.77 | 1.36 | 1650 | –
7 | COc1cc2cc(Oc3ccc(NC(=O)Nc4ccc(Cl)c(C(F)(F)F)c4)cc3)c(C)nc2cc1OCCN1CCCCC1 | 2.92 | 3.33 | 2.37 | – | 3.03 | 2.41 | 3.78 | 3.26 | 1.59 | 1.57 | 1.65 | – | 1.69 | 3.27 | – | – | 1.09 | 1.92 | 1600 | 486
8 | C=C1C(=O)OC2CC3(C)C=CC(=O)C(=C)C3CC12 (stereo unspecified) | 3.35 | 3.05 | 12.4 | 3.45 | 7.19 | 3.49 | 2.86 | 1.69 | – | – | – | – | – | – | – | – | – | – | – | –
9 | O=C(CCn1[nH]c(=O)c(Cl)c(Cl)c1=O)NOCCCc1ccccc1 | > 100 | – | > 100 | > 100 | > 100 | > 100 | > 100 | – | – | – | – | – | – | – | – | – | – | – | – | –
10 | Cc1ccc(C(=O)Nc2ccc(S(=O)(=O)O)c3cc(S(=O)(=O)O)cc(S(=O)(=O)O)c23)cc1NC(=O)c1cccc(N)c1 | > 100 | > 100 | > 100 | > 100 | > 100 | – | > 100 | > 100 | – | – | – | – | – | > 100 | – | > 100 | – | – | – | –
11 | COc1cc2nc(Cl)nc(Nc3cccc(C(=O)/C=C/c4ccccc4)c3)c2cc1OC | > 100 | > 100 | – | > 100 | 31.3 | 8.52 | > 100 | 52.6 | 3.09 | 3.51 | 11.4 | 4.39 | 4.26 | > 100 | > 30.3 | > 100 | 2.09 | 5.01 | 3750 | –
12 | CCN1C(=O)N(CC)C2C1NN=c1s/c(=C3\C(=O)N(C(C)C)c4ccccc43)c(=O)n12 (stereo unspecified) | > 42.2 | 1.8 | > 100 | > 100 | 0.841 | 6.53 | > 100 | > 100 | 0.465 | 0.525 | 0.337 | 0.35 | 0.3 | 3.14 | – | – | 0.342 | 0.376 | 294 | 426
13 | COC(=O)[C@@H]1CSC(=S)N1C(=O)C[C@H]1CC=CC[C@H]1CC(=O)Sc1ccccc1 | 32.1 | 37.1 | 27.9 | 37.4 | 36.2 | – | 32.4 | 18.2 | – | – | – | – | – | – | – | – | – | – | – | –
14 | O=C(CCl)c1ccc([N+](=O)[O-])o1 | 3.26 | 3.72 | 1.81 | 8.99 | 2.58 | – | 5.06 | > 21.1 | 2.81 | 1.68 | 1.73 | 2.76 | 3.51 | 23.8 | 1.89 | 4.78 | – | 2.18 | 1250 | 406
15 | O=C(CC1Sc2ccccc2NC1=O)Nc1cc(Cl)ccc1Cl (stereo unspecified) | > 100 | – | 82.1 | > 100 | > 100 | > 100 | > 100 | – | – | – | – | – | – | – | – | – | – | – | – | –
16 | CC1(Sc2ccccc2)CN(Cc2ccccc2)C1=O (stereo unspecified) | > 100 | > 100 | – | > 100 | > 100 | 86 | > 100 | > 100 | – | – | – | – | – | – | – | – | – | – | – | –
17 | COC(=O)CCC(=O)N1Cc2cc(C)ccc2N(C(=O)CCC(=O)OC)Cc2cc(C)ccc21 | > 100 | > 100 | > 100 | > 100 | > 100 | > 100 | > 100 | > 100 | – | – | – | – | – | – | – | – | – | – | – | –
18 | Cc1ccc2c(c1)C1(C)OC(CC(N)C1O)O2 (stereo unspecified) | > 100 | > 100 | – | > 100 | > 100 | – | > 100 | > 100 | – | – | – | – | – | – | – | – | – | – | – | –
19 | Cc1ccc2[nH]c(C(=O)NN3C(=O)CSC34CCCCC4C)c(-c3ccccc3)c2c1 (stereo unspecified) | 33.3 | 48.9 | – | 36.9 | 30.1 | 27.3 | 37.7 | 27.9 | 13.1 | 17.3 | 20.4 | 14.4 | – | – | 16.3 | 40 | 12.7 | 19.5 | 13900 | –
